One assay concerns caspases 8, 3 and 7. The assay is described as follows: Western blot of caspase cleavage in monocytes. The format is cell-based, human. The settings on record: for cleavage of effector caspases-3 and -7 at their specific differentiation cleavage site: monocytes treated 2 days with CSF-1; for cleavage of the zymogens of caspases 8, 3 and 7 in their active 17-20 kDa fragments: untreated monocytes without CSF-1, 24 h. The method, then:
Lysates were centrifuged at 20,000 g (15 min, 4° C.) and supernatants were supplemented with concentrated loading buffer (4× Laemmli buffer). Fifty micrograms of proteins were separated and transferred following standard protocols before analysis with the chemiluminescence detection kit (GE Healthcare, RPN2105).
For orientation: Immunoblotting shows a protein as a band on a membrane.

In assay [1] the target is T1, caspase-8 (Homo sapiens, UniProt Q14790). The assay is described as follows: Caspase-8 activity in cellulo in CSF-1-differentiating monocytes (flow cytometry, IETD). More on the design: endogenous in cells; host or cells: primary human peripheral blood monocytes exposed to CSF-1. The conditions noted are these: CSF-1 2 days. The format is cell-based. From the text: (§1) FIG. 5. […] Caspases activities from 3 different healthy donors was examined by flow cytometry analysis. The results are expressed as percentage of IETD or DEVD positive cells and represent the mean±SD of 3 independent experiments performed in duplicate. n.s. denotes not statistically significant according to a paired student t test. *P<0.05, **P<0.01, ***P<0.001 according to a paired student t test (versus d2). Asterisks indicate cleavage fragments. Each panel is representative of at least 3 independent experiments.
(§2) To analyze the macrophagic differentiation of monocytes, the cells were washed with ice-cold phosphate buffered saline (PBS, Life Technologies, 14190169), incubated at 4° C. for 10 min in PBS/bovine serum albumin (BSA 0.5%, Dutscher, 871002) with anti-CD16, anti-CD71 and anti-CD163 or isotype controls (Miltenyi and BD Biosciences, catalog numbers were 130-113-396, 130-097-628 and 551374). […] Fluorescence was measured with a MACSQuant® Analyzer (Miltenyi, Paris, France). […] Fluorescence was measured with a MACSQuant® Analyzer (Miltenyi, Paris, France). […] Fluorescence, that indicate the internalization of particles, was measured with a MACSQuant® Analyzers (Miltenyi, France). Trypan blue solution was used to quench the fluorescence from particles that were not internalized. […]
(§3) After 2 days, caspase-8 activity was assessed by flow cytometry using Ac-IETD-FITC as substrate (data not shown).
Target sequence in this assay (Q14790 217-479): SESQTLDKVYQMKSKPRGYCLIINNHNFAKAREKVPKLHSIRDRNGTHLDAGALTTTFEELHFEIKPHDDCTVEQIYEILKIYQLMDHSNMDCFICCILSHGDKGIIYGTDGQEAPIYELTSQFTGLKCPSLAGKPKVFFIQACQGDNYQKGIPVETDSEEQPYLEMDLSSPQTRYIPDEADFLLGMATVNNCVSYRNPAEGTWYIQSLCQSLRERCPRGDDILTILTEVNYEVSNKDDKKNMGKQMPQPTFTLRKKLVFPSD
Background: In flow cytometry, cells or beads pass a laser one at a time.

Assay [2] addresses T1, caspase-8. Put plainly: Recombinant caspase-8 activity in vitro (Ac-IETD-AMC substrate). More on the design: using active recombinant proteins of caspase-8 and caspase-3; purchased Enzo life sciences ALX-201-062. The conditions noted are these: recombinant caspase-8, Ac-IETD-AMC. The format is biochemical. From the text: (§4) FIG. 4. […] (A) Measures of caspase-8 activity (IETD-AMC). IETD-CHO treatment is used as positive control in the in vitro assay. The results are expressed as A.U./min and represent the mean of 3 independent experiments realized in duplicate (B) Measures of caspase-3 activity (DEVD-AMC). DEVD-CHO is used as positive control in the in vitro assay. The results are expressed as A.U./min and represent the mean of 3 independent experiments realized in duplicate. Human CSF-1 was purchased from Miltenyi (130-096-493). […] Mouse caspase-8 was from R&D Systems (AF705). HRP-conjugated rabbit anti-goat was purchased from Dako ([…]) and HRP-conjugated goat anti-rabbit was from Cell Signaling (5127). Active recombinant caspase-8 (ALX-201-062) and -3 (ALX-201-059) were from Enzo life sciences. […] Each assay (in triplicate) was performed with 10 μg of protein prepared from control or stimulated cells. […] Enzyme activities were expressed in arbitrary units (A.U.) per min and per mg of proteins. The same protocol was used with 0.25 units of active recombinant caspase-8 (Enzo, ALX-201-062) or -3 (Enzo, ALX-201-059) in each triplicate.
Target sequence in this assay (Q14790 217-374 limits assumed): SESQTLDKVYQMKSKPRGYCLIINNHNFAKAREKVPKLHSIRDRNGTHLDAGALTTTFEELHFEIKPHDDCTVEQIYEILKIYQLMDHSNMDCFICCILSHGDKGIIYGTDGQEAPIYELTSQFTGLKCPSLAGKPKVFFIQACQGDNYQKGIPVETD
Target sequence in this assay (Q14790 385-479 limits assumed): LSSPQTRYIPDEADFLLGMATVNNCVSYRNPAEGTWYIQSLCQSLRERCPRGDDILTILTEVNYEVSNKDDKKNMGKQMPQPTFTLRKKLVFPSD

In assay [3] the target is T2, caspase 3 (Homo sapiens, UniProt P42574).
T2 sequence (P42574 29-175 limits assumed): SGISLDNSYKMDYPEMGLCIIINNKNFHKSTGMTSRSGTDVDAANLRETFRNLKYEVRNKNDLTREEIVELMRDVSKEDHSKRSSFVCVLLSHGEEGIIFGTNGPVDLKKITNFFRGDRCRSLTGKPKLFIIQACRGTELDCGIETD
T2 sequence (P42574 176-277 limits assumed): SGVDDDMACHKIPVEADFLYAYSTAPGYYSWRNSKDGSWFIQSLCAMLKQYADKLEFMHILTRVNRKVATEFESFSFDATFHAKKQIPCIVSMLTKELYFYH
Put plainly: Recombinant caspase-3 activity in vitro (Ac-DEVD-AMC substrate). The settings on record: recombinant caspase-3, Ac-DEVD-AMC. The format is biochemical. More on the design: using active recombinant proteins of caspase-8 and caspase-3; purchased Enzo life sciences ALX-201-059.
Description: as §4

The target in assay [4] is T2, caspase 3. Put plainly: Caspase-3 activity in cellulo in CSF-1-differentiating monocytes (flow cytometry, DEVD). It is filed as cell-based. More on the design: endogenous in cells; host or cells: primary human peripheral blood monocytes (CD14-selected, healthy donors). The settings on record: identical conditions: Emricasan single dose, Q-VD-OPh 100 μM 2 times.
Description: as §1, §2, §3

As usually defined, the IC50 is the concentration that inhibits the measured activity by half.

Regarding `C[C@H](NC(=O)C(=O)Nc1ccccc1C(C)(C)C)C(=O)N[C@@H](CC(=O)O)C(=O)COc1c(F)c(F)cc(F)c1F` [Emricasan, (S)-3-((S)-2-(2-((2-(tert-Butyl)phenyl)amino)-2-oxoacetamido)propanamido)-4-oxo-5-(2,3,5,6-tetrafluorophenoxy)pentanoic acid], in the assay with caspases 8, 3 and 7, the “cleavage of effector caspases-3 and -7 at their specific differentiation cleavage site” value was “impaired”; the “cleavage of the zymogens of caspases 8, 3 and 7 in their active 17-20 kDa fragments” value is “abrogated”. Moreover, the “single dose that abrogated caspase-8 activity in cellulo” value at caspase-8 [1] (flow cytometry) worked out at 2 µM. For the same compound, at caspase-8 [2], the IC50 came out at 0.012 µM and the “concentration that abrogated / fully inhibited caspase-8 activity” value is 0.2 µM. On caspase 3 [3], the half-maximal inhibitory concentration (IC50) is roughly 0.5 µM and the “concentration of maximal inhibition of caspase-3” value was 10 µM. For the same compound, the “effect on caspase-3 activity in cellulo” value on caspase 3 [4] is “potent inhibition”.

As to `CC(C)[C@H](NC(=O)c1ccc2ccccc2n1)C(=O)N[C@@H](CC(=O)O)C(=O)COc1c(F)cccc1F` [Q-VD-OPh], in the assay on caspases 8, 3 and 7, the “cleavage of effector caspases-3 and -7 at their specific differentiation cleavage site” value is reported as “impaired”; the “cleavage of the zymogens of caspases 8, 3 and 7 in their active 17-20 kDa fragments” value is listed as “abrogated”. Besides, the “effect on caspase-8 activity in cellulo” value at caspase-8 [1] (added twice at 100 μM) is reported as “strong inhibition”. Besides, at caspase-8 [2], the IC50 is roughly 1 µM and the “concentration that abrogated / fully inhibited caspase-8 activity” value amounted to 50 µM. Moreover, at caspase 3 [3], the IC50 is roughly 0.5 µM and the “concentration of maximal inhibition of caspase-3” value amounted to 10 µM. Moreover, on caspase 3 [4], the “effect on caspase-3 activity in cellulo” value is listed as “potent inhibition”.

The values above are taken from patent publication US20220354811A1, “METHODS AND COMPOSITIONS FOR MODULATING MACROPHAGES POLARIZATION” (INSERM (INSTITUT NATIONAL DE LA SANTÉ ET DE LA RECHERCHE …, priority 2019, published 2022).
